Results reported in patent publication US20260250290A1 (BRISTOL-MYERS SQUIBB COMPANY, priority 2023, published 2026).
Counter-ions that a name gives are not always drawn.

Biological target: T1, full length SGK1 (Homo sapiens, UniProt O00141)
T1 construct: 125 μM full length SGK1 (Life Technologies Part #PR7358A); purchased Life Technologies PR7358A
T1 sequence (O00141 1-431): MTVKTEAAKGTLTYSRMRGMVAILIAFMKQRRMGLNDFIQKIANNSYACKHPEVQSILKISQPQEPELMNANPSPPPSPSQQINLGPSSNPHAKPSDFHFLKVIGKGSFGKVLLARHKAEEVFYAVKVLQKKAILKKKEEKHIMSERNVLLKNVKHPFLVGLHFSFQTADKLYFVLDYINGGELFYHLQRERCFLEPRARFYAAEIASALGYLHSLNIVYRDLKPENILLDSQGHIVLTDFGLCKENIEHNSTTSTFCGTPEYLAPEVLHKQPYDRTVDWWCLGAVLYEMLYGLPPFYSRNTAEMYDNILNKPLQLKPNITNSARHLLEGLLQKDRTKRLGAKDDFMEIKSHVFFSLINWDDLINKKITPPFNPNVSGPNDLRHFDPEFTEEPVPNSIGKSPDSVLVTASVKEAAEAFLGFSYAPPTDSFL
Assay: SGK1 inhibition Assay A (Caliper LabChip electrophoretic separation of fluorescent peptide substrate and phosphorylated product)
Format: biochemical
Details: Assay A; 20 μM ATP, 40 min incubation; read-out: SGK1 IC50

Compound	IC50 [nM]
CNc1cccc(C(=O)N[C@@H]2CCCN(c3cc(C4=CCN(C(C)=O)C4)n4ncnc(N)c34)C2)n1 [Example 778, (R)-N-(1-(7-(1-acetyl-2,5-dihydro-1H-pyrrol-3-yl)-4-aminopyrrolo[2,1-f][1,2,4]triazin-5-yl)piperidin-3-yl)-6-(methylamino)picolinamide]	21
COc1cc(C(=O)N(C)[C@@H]2CCCN(c3cc(-c4ccc(S(C)(=O)=O)cc4)n4ncnc(N)c34)C2)ccn1 [Example 121, (R)—N-(1-(4-amino-7-(4-(methylsulfonyl)phenyl)pyrrolo[2,1-f][1,2,4]triazin-5-yl)piperidin-3-yl)-2-methoxy-N-methylisonicotinamide]	383
N#Cc1ncc(-c2cc(N3CCC[C@@H](NC(=O)c4ccc(C(F)F)s4)C3)c3c(N)ncnn23)cc1C(F)(F)F [Example 524, (R)-N-(1-(4-amino-7-(6-cyano-5-(trifluoromethyl)pyridin-3-yl)pyrrolo[2,1-f][1,2,4]triazin-5-yl)piperidin-3-yl)-5-(difluoromethyl)thiophene-2-carboxamide]	362
Nc1ncnn2c(C3=CCN(C(=O)[C@@H]4CCCNC4)C3)cc(N3CCC[C@@H](NC(=O)c4ccc(Cl)s4)C3)c12 [Example 901, N-((R)-1-(4-amino-7-(1-((R)-piperidine-3-carbonyl)-2,5-dihydro-1H-pyrrol-3-y1)pyrrolo[2,1-f][1,2,4]triazin-5-y1)piperidin-3-y1)-5-chlorothiophene-2-carboxamide]	29
Cc1ccc(C(=O)N(C)[C@@H]2CCCN(c3cc(-c4ccc(S(C)(=O)=O)cc4)n4ncnc(N)c34)C2)s1 [Example 122, (R)—N-(1-(4-amino-7-(4-(methylsulfonyl)phenyl)pyrrolo[2,1-f][1,2,4]triazin-5-yl)piperidin-3-yl)-N,5-dimethylthiophene-2-carboxamide]	29
CC(=O)N1CC=C(c2cc(N3CCC[C@@H](NC(=O)c4cncc(N5CCN(C)CC5)n4)C3)c3c(N)ncnn23)C1 [Example 736]	48
CC(=O)N1CC=C(c2cc(N3CCC[C@@H](NC(=O)c4ccc(C#N)cc4)C3)c3c(N)ncnn23)C1 [Example 494, (R)-N-(1-(7-(1-acetyl-2,5-dihydro-1H-pyrrol-3-yl)-4-aminopyrrolo[2,1-f][1,2,4]triazin-5-yl)piperidin-3-yl)-4-cyanobenzamide]	38
CN1CCC(c2cc(C(F)F)sc2C(=O)N[C@@H]2CCCN(c3cc(-c4ccc(C#N)nc4)n4ncnc(N)c34)C2)CC1 [Example 396, (R)-N-(1-(4-amino-7-(6-cyanopyridin-3-yl)pyrrolo[2,1-f][1,2,4]triazin-5-yl)piperidin-3-yl)-5-(difluoromethyl)-3-(1-methylpiperidin-4-yl)thiophene-2-carboxamide]	146
CS(=O)(=O)c1ccc(-c2cc(N3CCC[C@@H](NC(=O)c4cnco4)C3)c3c(N)ncnn23)cc1 [Example 61, (R)-N-(1-(4-amino-7-(4-(methylsulfonyl)phenyl)pyrrolo[2,1-f][1,2,4]triazin-5-yl)piperidin-3-yl)oxazole-5-carboxamide]	33
Cc1ccc(C(=O)NC2CCCN(c3cc(-c4ccc(S(C)(=O)=O)cc4)n4ncnc(N)c34)C2)cc1 (centres unmarked) [Example 7, N-(1-(4-amino-7-(4-(methylsulfonyl)phenyl)pyrrolo[2,1-f][1,2,4]triazin-5-yl)piperidin-3-yl)-4-methylbenzamide, TFA]	90

Stronger by IC50, values ahead:

IC50 [nM]	Compound
15	Nc1ncnn2c(-c3ccc(OC(F)F)cc3)cc(N3CCC[C@@H](NC(=O)c4ccc(Cl)s4)C3)c12 [Example 225, (R)-N-(1-(4-amino-7-(4-(difluoromethoxy)phenyl)pyrrolo [2,1-f][1,2,4]triazin-5-yl)piperidin-3-yl)-5-chlorothiophene-2-carboxamide, TFA]
6	Cc1cc(C(=O)N[C@@H]2CCCN(c3cc(-c4ccc(S(C)(=O)=O)cc4)n4ncnc(N)c34)C2)sc1C [Example 89, (R)-N-(1-(4-amino-7-(4-(methylsulfonyl)phenyl)pyrrolo[2,1-f][1,2,4]triazin-5-yl)piperidin-3-yl)-4,5-dimethylthiophene-2-carboxamide]
10	COc1cscc1C(=O)N[C@@H]1CCCN(c2cc(C3=CCN(C(C)=O)C3)n3ncnc(N)c23)C1 [Example 721, (R)-N-(1-(7-(1-acetyl-2,5-dihydro-1H-pyrrol-3-yl)-4-aminopyrrolo[2,1-f][1,2,4]triazin-5-yl)piperidin-3-yl)-4-methoxythiophene-3-carboxamide]
10	COC(=O)N1CC=C(c2cc(N3CCC[C@@H](NC(=O)c4sc5ccccc5c4OC4CCNCC4)C3)c3c(N)ncnn23)C1 [Example 652, methyl (R)-3-(4-amino-5-(3-(3-(piperidin-4-yloxy)benzo[b]thiophene-2-carboxamido)piperidin-1-yl)pyrrolo[2,1-f][1,2,4]triazin-7-yl)-2,5-dihydro-1H-pyrrole-1-carboxylate]
15	Cc1cc(CN2CCN(C)CC2)c(C(=O)N[C@@H]2CCCN(c3cc(-c4ccnc(F)c4)n4ncnc(N)c34)C2)s1 [Example 200, (R)—N-(1-(4-amino-7-(2-fluoropyridin-4-yl)pyrrolo[2,1-f][1,2,4]triazin-5-yl)piperidin-3-yl)-5-methyl-3-((4-methylpiperazin-1-yl)methyl)thiophene-2-carboxamide]
0.5	NC(=O)c1ccc(-c2cc(N3CCC[C@@H](NC(=O)c4sc(Cl)cc4OC4CC5(CNC5)C4)C3)c3c(N)ncnn23)cn1 [Example 592, (R)-5-(5-(3-(3-((2-azaspiro[3.3]heptan-6-yl)oxy)-5-chlorothiophene-2-carboxamido)piperidin-1-yl)-4-aminopyrrolo[2,1-f][1,2,4]triazin-7-yl)picolinamide]
3	COC(=O)N1CC=C(c2cc(N3CCC[C@@H](NC(=O)c4sc(Cl)cc4OC4CCNC4)C3)c3c(N)ncnn23)C1 (stereo partly drawn) [Example 570, Methyl 3-(4-amino-5-((3R)-3-(5-chloro-3-(pyrrolidin-3-yloxy)thiophene-2-carboxamido)piperidin-1-yl)pyrrolo[2,1-f][1,2,4]triazin-7-yl)-2,5-dihydro-1H-pyrrole-1-carboxylate]
8	COc1cc(C)sc1C(=O)N[C@@H]1CCCN(c2cc(-c3ccc(S(C)(=O)=O)cc3)n3ncnc(N)c23)C1 [Example 100, (R)-N-(1-(4-amino-7-(4-(methylsulfonyl)phenyl)pyrrolo[2,1-f][1,2,4]triazin-5-yl)piperidin-3-yl)-3-methoxy-5-methylthiophene-2-carboxamide]
8	CN(C)CCOc1cc(Cl)sc1C(=O)N[C@@H]1CCCN(c2cc(C3=CCN(C(=O)C4CC(F)(F)C4)C3)n3ncnc(N)c23)C1 [Example 179, (R)-N-(1-(4-amino-7-(1-(3,3-difluorocyclobutane-1-carbonyl)-2,5-dihydro-1H-pyrrol-3-yl)pyrrolo[2,1-f][1,2,4]triazin-5-yl)piperidin-3-yl)-5-chloro-3-(2-(dimethylamino)ethoxy) thiophene-2-carboxamide, 2 TFA]
6	COC(=O)N1CC=C(c2cc(N3CCC[C@@H](NC(=O)c4sc(C(F)F)cc4OC4CCNCC4)C3)c3c(N)ncnn23)C1 [Example 348, methyl (R)-3-(4-amino-5-(3-(5-(difluoromethyl)-3-(piperidin-4-yloxy)thiophene-2-carboxamido)piperidin-1-yl)pyrrolo[2,1-f][1,2,4]triazin-7-yl)-2,5-dihydro-1H-pyrrole-1-carboxylate]
